# Read-outs that look alike come from different tables or passages of the source. Positions of bridges follow the written chain, without caps; N, C: chain ends. Residues, ends and D or L forms follow the SMILES beside them.
# How the values were obtained:
# [1] = stability of oxetane to side-chain deprotection with TFA; assay type: physicochemical; details: 70% TFA/20% CH2Cl2/10% TIS, 2.5 h (global side-chain deprotection including Arg Pbf)
# Excerpt: Macrocyclisations not involving head-to-tail ring closure have also been examined. Specifically, the formation of disulphide containing macrocycles through oxidative cyclisation of cysteine side chains has been explored (Scheme 5). Treatment of 2, whose synthesis was described in Scheme 3, with iodine provided the 17-membered macrocycle by way of trityl deprotection and disulphide bond formation. Further reaction with TFA in the presence of the cation scavenger triisopropylsilane (TIS) facilitated removal of all the side chain protecting groups providing 22 after reverse-phase HPLC purification. […] Smaller 11- and 14-membered macrocycles 23 and 24 were also conveniently produced in good yields using this methodology.
# [formula] Scheme 5 Oxetane modified cyclic peptides by disulphide bond formation.^a^,^b^aReagents and conditions: (a) I2 (3.0 equiv.), MeOH, 1 h; (b) 70% TFA/20% CH2Cl2/10% TIS, 2.5 h. ^bBond formed in macrocyclisation indicated in red. ^cTFA step omitted; yield in parenthesis for the cyclisation of linear peptide with C?O rather than oxetane in backbone. ^dData taken from [ref. 14].
# Fmoc-Cys(Trt)-Asn(Trt)-GOx-Arg(Pbf)-Cys(Trt)-OtBu (2)
# Diethylamine (1.0 mL) was added to a solution of Fmoc-GOx-Arg(Pbf)-Cys(Trt)-OtBu (127) […]
# and the reaction mixture was stirred at room temperature for 1 h. […]
# [2] = target: T1, porcine Aminopeptidase N (APN) (Sus scrofa, UniProt P15145); test: porcine Aminopeptidase N inhibition, spectrophotometric; assay type: biochemical
# T1 construct: aminopeptidase from porcine kidney (pAPN, Sigma Aldrich); purchased Sigma Aldrich; host or cells: porcine kidney (microsomal preparation)
# T1 sequence (P15145 1-963): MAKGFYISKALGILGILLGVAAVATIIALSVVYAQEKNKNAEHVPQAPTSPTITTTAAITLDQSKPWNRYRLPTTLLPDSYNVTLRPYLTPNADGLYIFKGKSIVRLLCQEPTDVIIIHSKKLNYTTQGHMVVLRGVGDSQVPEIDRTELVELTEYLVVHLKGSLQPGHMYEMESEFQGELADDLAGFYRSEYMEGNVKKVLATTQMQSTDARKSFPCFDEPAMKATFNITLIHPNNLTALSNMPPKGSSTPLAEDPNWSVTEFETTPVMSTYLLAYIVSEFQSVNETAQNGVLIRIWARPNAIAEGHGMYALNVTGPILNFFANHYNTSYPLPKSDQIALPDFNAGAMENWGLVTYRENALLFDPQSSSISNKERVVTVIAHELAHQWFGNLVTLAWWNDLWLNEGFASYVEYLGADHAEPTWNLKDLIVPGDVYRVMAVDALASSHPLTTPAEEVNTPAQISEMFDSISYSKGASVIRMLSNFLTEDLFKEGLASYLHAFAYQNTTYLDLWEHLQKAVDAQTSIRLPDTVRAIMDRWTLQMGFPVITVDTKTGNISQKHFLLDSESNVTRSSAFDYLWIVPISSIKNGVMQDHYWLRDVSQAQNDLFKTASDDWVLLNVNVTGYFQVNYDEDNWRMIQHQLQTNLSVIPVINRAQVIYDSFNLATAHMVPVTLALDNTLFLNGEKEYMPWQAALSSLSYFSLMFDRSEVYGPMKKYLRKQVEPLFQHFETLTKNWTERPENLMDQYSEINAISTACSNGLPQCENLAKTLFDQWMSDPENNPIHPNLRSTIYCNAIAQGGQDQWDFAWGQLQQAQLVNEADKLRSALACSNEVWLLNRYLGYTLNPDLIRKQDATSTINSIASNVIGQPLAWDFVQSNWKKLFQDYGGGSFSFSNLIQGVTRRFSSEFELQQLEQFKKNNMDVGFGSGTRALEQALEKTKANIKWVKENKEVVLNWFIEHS
# Excerpt: Studies to explore the impact of oxetane modification on the bioactivity of the derived cyclic peptides were undertaken. cCNGRC (26) is known to target Aminopeptidase N (APN), a transmembrane zinc-dependent metalloprotease involved in a variety of processes, including blood pressure regulation, cell migration, viral uptake, cell survival, and angiogenesis.[18],[19] Both oxetane modified derivative 22 and cCNGRC (26) were examined for their inhibitory activity towards porcine APN using a spectrophotometric assay (Table 2).[19]
# 4. In vitro inhibition assay of aminopeptidase N with oxetane modified peptide 22 and parent
# Peptide 26 was synthesised following a procedure by Piras et al.[10] using HCTU as coupling reagent and NMM as base. Oxidation was performed by on-resin cyclization as described for the biotin labelled […]
# For the determination of IC50 values of oxetane modified peptide 22 and parent peptide 26, a protocol published by Piras et al.[10] was followed using L-leucine-p-nitroanilide as substrate and microsomal aminopeptidase from porcine kidney (pAPN, Sigma Aldrich) (18 units/mg protein). IC50 values were calculated by following the formation of p-nitroaniline. Formation of p-nitroaniline was monitored by measurement of the UV absorption at 405 nm on a Hidex Sense plate reader. […]
SMILES,oxetane stability to acid [1],IC50 ([2]; read-out: IC50) [µM],IC50 [2] [µM]
"N=C(N)NCCC[C@@H]1NC2(CNC(=O)[C@H](CC(N)=O)NC(=O)[C@@H](N)CSSC[C@@H](C(=O)O)NC1=O)COC2 [Compound 22, Cyclo(H-Cys-Asn-GOx-Arg-Cys-OH)]",survives the strongly acid conditions,175,
"N=C(N)NCCC[C@@H]1NC(=O)CNC(=O)[C@H](CC(N)=O)NC(=O)[C@@H](N)CSSC[C@@H](C(=O)O)NC1=O [cCNGRC (26), reference compound] (H-CNGRC-OH; disulfide 1-5)",,,212

# From article PMC6385813, “Macrocyclisation of small peptides enabled by oxetane incorporation” (Chemical Science, 2019)
